Assay type in all cases: cell-based
The subject of one series is LXFL-529L cells. The series can be described thus: Cellular uptake by LXFL-529L cells. Conditions: 2 hours; for distribution particular: cellular organelles. Here is the method:
The amounts of the substances which were taken up by the cells are given depending on the concentration of the substance within the incubation medium. The time of incubation was 2 hours in all of the experiments. Furthermore, distribution between cytosol and the cellular organelles (particular) was measured and is given in the last two columns of Table 3.

The subject of series [1] is cells of the large-cell lung carcinoma of the tumor line LXFL-529L. The series can be described thus: Tumor cell growth inhibition, SRB-assay, LXFL-529L. Conditions: 50% growth inhibition, three days incubation in serum-containing medium.
Series [2] deals with cells of the mammary carcinoma cell line MCF-7. The series can be described thus: Tumor cell growth inhibition, SRB-assay, MCF-7. Conditions: 50% growth inhibition, three days incubation in serum-containing medium.
Setting [3] is: concentration of incubation 10 μM.
Where [4] appears, read: concentration of incubation 20 μM.
Where [5] appears, read: concentration of incubation 50 μM.

The structures appear in SMILES notation.

Consider `Cc1ccc2c(c1)C(=C1Nc3ccccc3C1=NO)C(=O)N2` [Example 25, 5-methyl-indirubin-3′-monooxime], for which the distribution particular is 80 ± 5% in the series on LXFL-529L cells (setting [3]), 84 ± 4% in the series on LXFL-529L cells (setting [4]) and 90 ± 8% in the series on LXFL-529L cells (setting [5]). Besides, the amount taken up in the series with LXFL-529L cells (setting [3]) amounted to 0.12 ± 0.03 μg/mg protein; in the series with LXFL-529L cells (setting [4]), 0.15 ± 0.04 μg/mg protein; in the series with LXFL-529L cells (setting [5]), 0.18 ± 0.06 μg/mg protein. In addition, the distribution cytosol in the series on LXFL-529L cells (setting [3]) came out at 20 ± 4%; in the series with LXFL-529L cells (setting [4]), 16 ± 3%; in the series on LXFL-529L cells (setting [5]), 10 ± 4%. The IC50 (commonly the concentration at which inhibition is half-maximal) in series [1] was 6 ± 0.8 µM; in series [2], 6 ± 0.9 µM.

Turning to `CCc1ccc2c(c1)/C(=C1/Nc3ccccc3C1=O)C(=O)N2` [Example 2, 5-ethyl-indirubin], in the series on LXFL-529L cells (setting [3]), the distribution particular is reported as 90 ± 6%, the amount taken up amounted to 0.20 ± 0.05 μg/mg protein and the distribution cytosol was 10 ± 2%. In the series with LXFL-529L cells (setting [4]), the distribution particular came out at 95 ± 3%, the amount taken up came out at 0.22 ± 0.07 μg/mg protein and the distribution cytosol was 5 ± 2%. It took 7 ± 0.2 µM to reach half-maximal inhibition in series [1] (IC50). Further, the concentration for half-maximal inhibition (IC50) in series [2] came out at 7 ± 0.2 µM.

With `CCc1ccc2c(c1)C(=C1Nc3ccccc3C1=NO)C(=O)N2` [Example 26, 5-ethyl-indirubin-3′-monooxime], in the series on LXFL-529L cells (setting [3]), the distribution particular was determined as 82 ± 6%, the amount taken up turned out to be 0.10 ± 0.03 μg/mg protein and the distribution cytosol is recorded as 18 ± 3%. Also, in the series with LXFL-529L cells (setting [4]), the distribution particular is listed as 89 ± 5%, the amount taken up is listed as 0.13 ± 0.05 μg/mg protein and the distribution cytosol was found to be 11 ± 3%. Also, it took 6 ± 0.6 µM to reach half-maximal inhibition in series [1] (IC50). The half-inhibitory concentration (IC50) in series [2] is 7 ± 0.9 µM.

The record behind these values is patent US6987092B1, “Indigoid bisindole derivatives” (Faustus Forschungs Cie. Translational Cancer Research GmbH, priority 1999, dated 2006).
